A short description of the data set: Dynamic Vapor Sorption (DVS) hygroscopicity. To be noted: for DVS (%): Table 6 summary of crystalline Forms I-V; for hygroscopicity by DVS analysis (in words): 0 to 90% RH at 25° C.; for DVS weight change: from 0 to 90% RH at 25° C. The format is physicochemical. As to the method:
Dynamic Vapor Sorption (DVS) was used to study hygroscopicity on Model Q5000 SA (TA Instruments, New Castle, DE). A sample (1-10 mg) was placed in an aluminum pan and loaded on the sample side of the twin pan balance. The water sorption and desorption were studied as a function of relative humidity (RH) at 25° C. in 10% RH increments from 0% RH to 90% RH and then back to 0%. […] Data analysis was performed using Universal Analysis 2000 Version 4.7A (TA Instruments, New Castle, DE).

[1] abbreviates: listed as Compound 1, crystalline Form II.
Where [2] appears, read: listed as Compound 1, crystalline Form III.
Where [3] appears, read: listed as Compound 1, crystalline Form IV.
Where [4] appears, read: listed as Compound 1, crystalline Form V.

Results on five compounds are retold here after patent publication US20250101057A1, “SOLID FORMS” (Gilead Sciences, Inc., priority 2023, published 2025).

For `C#C[C@]1(COC(=O)Cc2ccccc2)O[C@@H](n2cnc3c(N)nc(F)nc32)C[C@@H]1OC(=O)Cc1ccccc1` [Form I, (2R,3S,5R)-5-(6-amino-2-fluoro-9H-purin-9-yl)-2-ethynyl-2-((2-phenylacetoxy)methyl)tetrahydrofuran-3-yl 2-phenylacetate], for the setting “listed as I”, the “DVS (%)” value was determined as 0.85%.
For the compound `C#C[C@]1(COC(=O)Cc2ccccc2)O[C@@H](n2cnc3c(N)nc(F)nc32)C[C@@H]1OC(=O)Cc1ccccc1` [Form II, (2R,3S,5R)-5-(6-amino-2-fluoro-9H-purin-9-yl)-2-ethynyl-2-((2-phenylacetoxy)methyl)tetrahydrofuran-3-yl 2-phenylacetate], under setting [1], the “hygroscopicity by DVS analysis (in words)” value (shortened to “hygroscopicity”) is given as “non-hygroscopic” and the DVS weight change entry is “around 0.1%”. Further, the “DVS (%)” value (listed as II) was found to be 0.08%.
With `C#C[C@]1(COC(=O)Cc2ccccc2)O[C@@H](n2cnc3c(N)nc(F)nc32)C[C@@H]1OC(=O)Cc1ccccc1` [Form III, (2R,3S,5R)-5-(6-amino-2-fluoro-9H-purin-9-yl)-2-ethynyl-2-((2-phenylacetoxy)methyl)tetrahydrofuran-3-yl 2-phenylacetate], under setting [2], the “hygroscopicity” value is listed as “slightly hygroscopic” and the DVS weight change is approximately 1.2%. Further, the “DVS (%)” value (listed as III) was 1.2%.
Consider `C#C[C@]1(COC(=O)Cc2ccccc2)O[C@@H](n2cnc3c(N)nc(F)nc32)C[C@@H]1OC(=O)Cc1ccccc1` [Form IV, (2R,3S,5R)-5-(6-amino-2-fluoro-9H-purin-9-yl)-2-ethynyl-2-((2-phenylacetoxy)methyl)tetrahydrofuran-3-yl 2-phenylacetate], for which, under setting [3], the “hygroscopicity” value is reported as “non-hygroscopic” and the DVS weight change is on record as approximately 0.16%. Besides, under “listed as IV”, the “DVS (%)” value came to 0.16%.
As for `C#C[C@]1(COC(=O)Cc2ccccc2)O[C@@H](n2cnc3c(N)nc(F)nc32)C[C@@H]1OC(=O)Cc1ccccc1` [Form V, (2R,3S,5R)-5-(6-amino-2-fluoro-9H-purin-9-yl)-2-ethynyl-2-((2-phenylacetoxy)methyl)tetrahydrofuran-3-yl 2-phenylacetate], under setting [4], the “hygroscopicity” value is “non-hygroscopic” and the DVS weight change is recorded as approximately 0.1%. Besides, the “DVS (%)” value (listed as V) came out at 0.10%.
